Measured values: patent publication US20240246955A1, “TROPOMYOSIN RECEPTOR KINASE (TRK) DEGRADATION COMPOUNDS AND METHODS OF USE” (CULLGEN (SHANGHAI), INC., priority 2021, published 2024)

Legend:
Format in all cases: cell-based
KM12 cells = assay: KM12 cell viability assay (CellTiter-Glo); settings: Homo sapiens, 72 h; KM12 cells, 3 days, CellTiter-Glo
Procedure: The kinase activity of TRK is known to play important roles in tumors expressing TRK-fusion proteins, as TRK kinase inhibitors compromise cell proliferation, survival, and induce marked clinical responses (Amatu et al., 2016; Drilon et al., 2018; Drilon et al., 2017; Khotskaya et al., 2017). KM12 cells seeded in 96-well plates were treated with heterobifunctional compounds following a 11-point 3-fold serial dilution. Three days after treatment, cell viability was determined using the CellTiter-Glo kit, and normalized to the mean values of 3 replicates of untreated cells. Dose-dependent response was analyzed following the least-squares non-linear regression method using the GraphPad Prism software. Each data point in the figure represents the mean values of three technical replicates ±standard deviation.
KM12 cells seeded in 96-well plates were treated with heterobifunctional compounds following a 11-point 3-fold serial dilution for 3 days.
(§1) KM12, TRKA G595R mutated KM12, HEL, and other cells were cultured at 37° C. with 5% CO2 in DMEM or RPMI 1640 Medium supplemented with 10% fetal bovine serum. Cells were authenticated using the short tandem repeat (STR) assays. Mycoplasma test results were negative.
(§2) Cells were seeded at a density of 5000 cells per well in 96-well assay plates and treated with test compounds following a 11-point 3-fold serial dilution. Three days later, cell viability was determined using the CellTiter-Glo assay kit (Promega) according to the manufacturer's instructions. The dose-response curves were determined and IC50 values were calculated using the GraphPad Prism software following a nonlinear regression (least squares fit) method.

[1] = test system: TRKA G595R mutated KM12 cells; assay: Cell viability assay in TRKA G595R mutated KM12 cells (CellTiter-Glo); settings: Homo sapiens, 72 h, 3 days
Procedure: as §1, §2
The activities of selected compounds on cell viability (IC50 values) and TMP3-TRKA degradation (percentage degradation at 10 nM) in KM12 cells or KM12-G595R mutated KM12 cells (KM12-G595R) are listed in Table 2.

TPM3-TRKA fusion protein = target: T1, TPM3-TRKA fusion protein (Homo sapiens, UniProt P04629); assay: TPM3-TRKA degradation in KM12 cells (Western blot); settings: 16 hours, TRK protein, immunoblot; for inhibition at 0.01 µM: 10 nM; for inhibition at 0.1 µM: 100 nM
T1 construct: TPM3 (N-terminal part of tropomyosin alpha-3, natural fusion partner); endogenous in cells; host or cells: KM12 colon cancer cells; the other entry of the earlier key: TPM3 (P06753, Tropomyosin alpha-3 chain)
Procedure: Specific exemplary heterobifunctional compounds were characterized in KM12 cells. KM12 cells that express TPM3-TRKA fusion protein were treated with 10 nM or 100 nM heterobifunctional compounds disclosed herein or their corresponding warheads/inhibitors for 16 hours. Cells were collected, lysed and subject to immunoblotting using an antibody specific to TRK proteins.
KM12 cells were treated with heterobifunctional compounds at 10 nM or 100 nM for 16 hours.
Cultured cells were washed with cold PBS once and lysed in cold RIPA buffer supplemented with protease inhibitors and phosphatase inhibitors (Beyotime Biotechnology). The solutions were then incubated at 4° C. for 30 minutes with gentle agitation to fully lyse cells. Cell lysates were centrifuged at 13,000 rpm for 10 minutes at 4° C. and pellets were discarded. Total protein concentrations in the lysates were determined by BCA assays (Beyotime Biotechnology). Cell lysates were mixed with Laemmli loading buffer to 1× and heated at 99° C. for 5 min. Proteins were resolved on SDS-PAGE and visualized by chemiluminescence. Images were taken by a ChemiDoc MP Imaging system (Bio-Rad). Protein bands were quantitated using the software provided by Bio-Rad.
The percentage of TRK protein degradation of each compound at 10 nM and 100 nM was determined in KM12 cells as described in Methods. The percentage of degradation of each compound was indicated in the following categories: N/A: data not available; −: no degradation; +: degradation less than 50%; ++: degradation equal or greater than 50% but less than […]; +++: degradation equal or greater than 80%.

T1 sequence (P04629 with tags, fused parts or gaps): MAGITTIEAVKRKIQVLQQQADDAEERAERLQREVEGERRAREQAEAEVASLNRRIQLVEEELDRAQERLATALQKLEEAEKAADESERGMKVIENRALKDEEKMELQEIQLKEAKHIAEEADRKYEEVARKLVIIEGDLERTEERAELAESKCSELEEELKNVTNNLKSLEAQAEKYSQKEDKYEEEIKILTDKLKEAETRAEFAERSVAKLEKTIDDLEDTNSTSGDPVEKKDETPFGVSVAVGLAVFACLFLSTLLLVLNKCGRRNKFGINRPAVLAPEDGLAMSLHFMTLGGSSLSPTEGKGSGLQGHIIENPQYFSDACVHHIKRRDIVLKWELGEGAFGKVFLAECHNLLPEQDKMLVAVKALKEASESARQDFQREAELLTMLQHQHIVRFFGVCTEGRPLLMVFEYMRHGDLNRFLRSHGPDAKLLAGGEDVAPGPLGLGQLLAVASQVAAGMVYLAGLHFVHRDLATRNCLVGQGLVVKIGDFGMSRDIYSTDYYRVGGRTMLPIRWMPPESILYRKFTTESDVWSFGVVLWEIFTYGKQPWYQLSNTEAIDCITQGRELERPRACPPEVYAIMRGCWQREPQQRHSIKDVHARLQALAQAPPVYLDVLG

SMILES	inhibition at 0.01 µM (TPM3-TRKA fusion protein) [%]	inhibition at 0.1 µM (TPM3-TRKA fusion protein) [%]	IC50 (KM12 cells) [nM]	IC50 [1] [nM]
COCCN1C[C@@H](NC(=O)Nc2c(C)c(-c3cnc(N4CCN(CCCc5ccc6c(c5)C(=O)N(C5CCC(=O)NC5=O)C6=O)CC4)nc3)nn2-c2ccccc2)[C@H](c2cccc(F)c2)C1 (stereo partly drawn) [CPD-032, 1-(3-(2-(4-(3-(2-(2,6-dioxopiperidin-3-yl)-1,3-dioxoisoindolin-5-yl)propyl)piperazin-1-yl)pyrimidin-5-yl)-4-methyl-1-phenyl-1H-pyrazol-5-yl)-3-((3S,4R)-4-(3-fluorophenyl)-1-(2-methoxyethyl)pyrrolidin-3-yl)urea]	> 80	> 80	13.7	18.2
COCCN1C[C@@H](NC(=O)Nc2c(C)c(-c3cnc(N4CCN(CCNc5cccc6c5C(=O)N(C5CCC(=O)NC5=O)C6=O)CC4)nc3)nn2-c2ccccc2)[C@H](c2cccc(F)c2)C1 (stereo partly drawn) [CPD-030, 1-(3-(2-(4-(2-((2-(2,6-dioxopiperidin-3-yl)-1,3-dioxoisoindolin-4-yl)amino)ethyl)piperazin-1-yl)pyrimidin-5-yl)-4-methyl-1-phenyl-1H-pyrazol-5-yl)-3-((3S,4R)-4-(3-fluorophenyl)-1-(2-methoxyethyl)pyrrolidin-3-yl)urea]	50 to 800	50 to 800	1.09	5.13
COCCN1C[C@@H](NC(=O)Nc2c(C)c(-c3cnc(N4CCN(CCOc5cccc6c5C(=O)N(C5CCC(=O)NC5=O)C6=O)CC4)nc3)nn2-c2ccccc2)[C@H](c2cccc(F)c2)C1 (stereo partly drawn) [CPD-027, 1-(3-(2-(4-(2-((2-(2,6-dioxopiperidin-3-yl)-1,3-dioxoisoindolin-4-yl)oxy)ethyl)piperazin-1-yl)pyrimidin-5-yl)-4-methyl-1-phenyl-1H-pyrazol-5-yl)-3-((3S,4R)-4-(3-fluorophenyl)-1-(2-methoxyethyl)pyrrolidin-3-yl)urea]	50 to 800	50 to 800	3.13	4.47
COCCN1C[C@@H](NC(=O)Nc2c(C)c(-c3cnc(N4CCN(C(=O)CCCCCOc5cc(-c6scnc6C)ccc5CNC(=O)[C@@H]5C[C@@H](O)CN5C(=O)[C@@H](NC(=O)C5(F)CC5)C(C)(C)C)CC4)nc3)nn2-c2ccccc2)[C@H](c2cccc(F)c2)C1 [CPD-020, (2S,4R)-1-((S)-2-(1-fluorocyclopropane-1-carboxamido)-3,3-dimethylbutanoyl)-N-(2-((6-(4-(5-(5-(3-((3S,4R)-4-(3-fluorophenyl)-1-(2-methoxyethyl)pyrrolidin-3-yl)ureido)-4-methyl-1-phenyl-1H-pyrazol-3-yl)pyrimidin-2-yl)piperazin-1-yl)-6-oxohexyl)oxy)-4-(4-methylthiazol-5-yl)benzyl)-4-hydroxypyrrolidine-2-carboxamide]		50 to 800	293	
COCCN1C[C@@H](NC(=O)Nc2c(C)c(-c3cnc(N4CCN(CCCc5cccc6c5C(=O)N(C5CCC(=O)NC5=O)C6=O)CC4)nc3)nn2-c2ccccc2)[C@H](c2cccc(F)c2)C1 (stereo partly drawn) [CPD-029, 1-(3-(2-(4-(3-(2-(2,6-dioxopiperidin-3-yl)-1,3-dioxoisoindolin-4-yl)propyl)piperazin-1-yl)pyrimidin-5-yl)-4-methyl-1-phenyl-1H-pyrazol-5-yl)-3-((3S,4R)-4-(3-fluorophenyl)-1-(2-methoxyethyl)pyrrolidin-3-yl)urea]	< 50	50 to 800	13.4	277

Further lines, with some results ahead:

inhibition at 0.01 µM (TPM3-TRKA fusion protein) [%]	inhibition at 0.1 µM (TPM3-TRKA fusion protein) [%]	SMILES	IC50 (KM12 cells) [nM]	IC50 [1] [nM]
> 80	> 80	COCCN1C[C@@H](NC(=O)Nc2c(C)c(-c3cnc(N4CCN(C(=O)COc5ccc6c(c5)C(=O)N(C5CCC(=O)NC5=O)C6=O)CC4)nc3)nn2-c2ccccc2)[C@H](c2cccc(F)c2)C1 (stereo partly drawn) [CPD-023, 1-(3-(2-(4-(2-((2-(2,6-dioxopiperidin-3-yl)-1,3-dioxoisoindolin-5-yl)oxy)acetyl)piperazin-1-yl)pyrimidin-5-yl)-4-methyl-1-phenyl-1H-pyrazol-5-yl)-3-((3S,4R)-4-(3-fluorophenyl)-1-(2-methoxyethyl)pyrrolidin-3-yl)urea]	6.46	44
< 50	50 to 800	COCCN1C[C@@H](NC(=O)Nc2c(C)c(-c3cnc(N4CCN(C(=O)CCc5cccc6c5C(=O)N(C5CCC(=O)NC5=O)C6=O)CC4)nc3)nn2-c2ccccc2)[C@H](c2cccc(F)c2)C1 (stereo partly drawn) [CPD-025, 1-(3-(2-(4-(3-(2-(2,6-dioxopiperidin-3-yl)-1,3-dioxoisoindolin-4-yl)propanoyl)piperazin-1-yl)pyrimidin-5-yl)-4-methyl-1-phenyl-1H-pyrazol-5-yl)-3-((3S,4R)-4-(3-fluorophenyl)-1-(2-methoxyethyl)pyrrolidin-3-yl)urea]	30	158
> 80	> 80	COCCN1C[C@@H](NC(=O)Nc2c(C)c(-c3cnc(N4CCN(C(=O)CCc5ccc6c(c5)C(=O)N(C5CCC(=O)NC5=O)C6=O)CC4)nc3)nn2-c2ccccc2)[C@H](c2cccc(F)c2)C1 (stereo partly drawn) [CPD-026, 1-(3-(2-(4-(3-(2-(2,6-dioxopiperidin-3-yl)-1,3-dioxoisoindolin-5-yl)propanoyl)piperazin-1-yl)pyrimidin-5-yl)-4-methyl-1-phenyl-1H-pyrazol-5-yl)-3-((3S,4R)-4-(3-fluorophenyl)-1-(2-methoxyethyl)pyrrolidin-3-yl)urea]	42.1	301
50 to 800	50 to 800	COCCN1C[C@@H](NC(=O)Nc2c(C)c(-c3cnc(N4CCN(CCc5ccc6c(c5)C(=O)N(C5CCC(=O)NC5=O)C6=O)CC4)nc3)nn2-c2ccccc2)[C@H](c2cccc(F)c2)C1 (stereo partly drawn) [CPD-033, 1-(3-(2-(4-(2-(2-(2,6-dioxopiperidin-3-yl)-1,3-dioxoisoindolin-5-yl)ethyl)piperazin-1-yl)pyrimidin-5-yl)-4-methyl-1-phenyl-1H-pyrazol-5-yl)-3-((3S,4R)-4-(3-fluorophenyl)-1-(2-methoxyethyl)pyrrolidin-3-yl)urea]	14.4	94.6
< 50	50 to 800	COCCN1C[C@@H](NC(=O)Nc2c(C)c(-c3cnc(N4CCN(C(=O)COc5cccc6c5C(=O)N(C5CCC(=O)NC5=O)C6=O)CC4)nc3)nn2-c2ccccc2)[C@H](c2cccc(F)c2)C1 (stereo partly drawn) [CPD-024, 1-(3-(2-(4-(2-((2-(2,6-dioxopiperidin-3-yl)-1,3-dioxoisoindolin-4-yl)oxy)acetyl)piperazin-1-yl)pyrimidin-5-yl)-4-methyl-1-phenyl-1H-pyrazol-5-yl)-3-((3S,4R)-4-(3-fluorophenyl)-1-(2-methoxyethyl)pyrrolidin-3-yl)urea]	86.9	314
> 80	50 to 800	COCCN1C[C@@H](NC(=O)Nc2c(C)c(-c3cnc(N4CCN(CCOc5ccc6c(c5)C(=O)N(C5CCC(=O)NC5=O)C6=O)CC4)nc3)nn2-c2ccccc2)[C@H](c2cccc(F)c2)C1 (stereo partly drawn) [CPD-028, 1-(3-(2-(4-(2-((2-(2,6-dioxopiperidin-3-yl)-1,3-dioxoisoindolin-5-yl)oxy)ethyl)piperazin-1-yl)pyrimidin-5-yl)-4-methyl-1-phenyl-1H-pyrazol-5-yl)-3-((3S,4R)-4-(3-fluorophenyl)-1-(2-methoxyethyl)pyrrolidin-3-yl)urea]	4.1	30.4
